In PubChem BioAssay (NCI):
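Test compounds were applied to cells in 96-well plates for 48 hours at 5 doses. At the TGI there is no net growth.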

Assays:
Test in all cases: NCI anticancer screen, dose series, 48 h
SNB-75 CNS = system: SNB-75 CNS
SN12C renal = system: SN12C renal
HL-60(TB) leukemia = system: HL-60(TB) leukemia
SK-MEL-28 melanoma = system: SK-MEL-28 melanoma
SK-MEL-5 melanoma = system: SK-MEL-5 melanoma
IGROV1 ovarian = system: IGROV1 ovarian
HCT-15 colon = system: HCT-15 colon
NCI-H460 lung = system: NCI-H460 lung
NCI-H226 lung = system: NCI-H226 lung
CCRF-CEM leukemia = system: CCRF-CEM leukemia
SK-MEL-2 melanoma = system: SK-MEL-2 melanoma
U251 CNS = system: U251 CNS
SK-OV-3 ovarian = system: SK-OV-3 ovarian
SF-295 CNS = system: SF-295 CNS
T-47D breast = system: T-47D breast
MDA-MB-231 breast = system: MDA-MB-231 breast
HS 578T breast = system: HS 578T breast

Row | Structure (SMILES) | TGI (SNB-75 CNS) [µM] | TGI (SN12C renal) [µM] | TGI (HL-60(TB) leukemia) [µM] | TGI (SK-MEL-28 melanoma) [µM] | TGI (SK-MEL-5 melanoma) [µM] | TGI (IGROV1 ovarian) [µM] | TGI (HCT-15 colon) [µM] | TGI (NCI-H460 lung) [µM] | TGI (NCI-H226 lung) [µM] | TGI (CCRF-CEM leukemia) [µM] | TGI (SK-MEL-2 melanoma) [µM] | TGI (U251 CNS) [µM] | TGI (SK-OV-3 ovarian) [µM] | TGI (SF-295 CNS) [µM] | TGI (T-47D breast) [µM] | TGI (MDA-MB-231 breast) [µM] | TGI (HS 578T breast) [µM]
1 | N#C/C(c1nc2ccccc2[nH]1)=c1\s/c(=C/c2ccccc2)c(=O)n1-c1ccccc1 | > 100 | > 100 | > 100 | > 100 | > 100 | > 100 | > 100 | > 100 | > 100 | > 100 | > 100 | > 100 | > 100 |  |  |  | 
2 | CCOC(=O)c1c(CN2CCNCC2)nc2ccc(Cl)cc2c1-c1ccccc1 | 9.5 | 15 | 4.38 | 7.04 | 2.16 | 17.1 | 10.5 | 6.32 | 33.4 | 8.21 | 3.36 | 26.7 | 21.3 | 5.97 | 20.6 |  | 
3 | COc1cccc(C2=NC(C(C)C)CO2)c1OC (configuration not stated) | > 100 | > 100 | > 100 | > 100 | > 100 | > 100 | > 100 | > 100 | > 100 | > 100 | > 100 |  | > 100 | > 100 |  |  | 
4 | Cc1ccc(NC(=O)C2C3C=CC(O3)C2C(=O)O)cc1 (configuration not stated) | > 100 | > 100 | > 100 | > 100 | > 100 | > 100 | > 100 | > 100 | > 100 | > 100 | > 100 | > 100 | > 100 | > 100 |  |  | 
5 | CCc1cccc(C(C)C)c1NC(=O)/C(=N\NC(N)=O)C(C(=O)OC)c1cnc2ccccc2n1 (configuration not stated) | > 100 | > 100 | 79.6 | > 100 | 35.1 | > 100 | > 100 | 80.7 | > 100 | > 100 | > 100 | > 100 | > 100 | > 100 |  |  | 
6 | COc1cc(/C=C2\CCC(C)C3=C2N=c2s/c(=C/c4ccc(Cl)cc4)c(=O)n2C3c2cc(OC)c(OC)c(OC)c2)cc(OC)c1OC (configuration not stated) | > 100 | > 100 | > 100 | > 100 | > 100 | > 100 | > 100 |  |  | > 100 | > 100 | > 100 | > 100 |  |  | > 100 | > 100
